Data as given in patent US20240368122A1, “JAK2 INHIBITORS AND METHODS OF USE THEREOF” (RELAY THERAPEUTICS, INC., priority 2021, published 2024).
Where two headings read alike, the source gives them in different places.

Experiments:
[1] = tested on: TF1 JAK2 V617F STAT3 reporter; test: Cellular TF1 STAT3 assay (luciferase reporter), JAK2 V617F; assay type: cell-based; details: read-out: Cell PD-TF1 JAK2 V617F STAT3 (IC50)
Protocol: (§1) Selected compounds of the present disclosure were tested in a Cellular TF1 STAT3 or STAT5 assay, to measure the degree of JAK2-mediated STAT3 or STAT5 phosphorylation, respectively. TF1 cells (immortalized erythroleukemia line) expressing either wildtype or V617F mutant JAK2 with a luciferase reporter were used.
(§2) Cell culture: Cells were put into antibiotic selection (1 ug/ml puro+500 ug/ml Geneticin) when first thawed then maintained in growth media without antibiotics. Cells were maintained in exponential growth phase, between 0.02-1 E6 cells/ml.
(§3) Compound preparation: Compounds were screened as 10-point dose response curves 1:3 dilutions. DMSO is used as the vehicle control. All wells were normalized to the same final DMSO concentration. Compounds were pre-spotted onto 384 well plates using an Echo acoustic dispenser, 50 nL of 1000× (10 mM top concentration) DMSO stock/well. Each compound is run in triplicate plates.
(§4) Cell plating: Cells were counted using Vi-Cell XR, then cells were spun down and resuspended in growth media to 200,000 cells/ml. Cells were added to plates containing compound. 10,000 cells/well in 50 ul volume using a Biomek liquid handler. Plates were briefly mixed on a shaker for 1 minute at 2500 rpm then placed in a 37° C., 5% CO2 incubator overnight for 18-20 hrs.
(§5) Measuring luciferase activity: ONE-glo reagent was brought to room temperature, and 25 μL of ONE-glo assay reagent was added to each well using Biomek liquid handler. The plates were incubated for 10 minutes at room temperature, then luminescence was measured on an Envision plate reader.

[2] = tested on: TF1 JAK2 V617F STAT5 reporter; test: Cellular TF1 STAT5 assay (luciferase reporter), JAK2 V617F; assay type: cell-based; details: read-out: Cell PD TF1 V617F STAT5 (IC50)
Protocol: as §1, §2, §3, §4, §5

[3] = biological target: T1, JAK2 JH2 WT (V536-D812) [W659A, W777A, F794H solubilizing mutations] (Homo sapiens, UniProt O60674, F794H/W659A/W777A); test: Surface Plasmon Resonance (SPR) binding assay, JAK2 JH2 domain
T1 construct: **JAK2 JH2 WT (V536-D812) [W659A, W777A, F794H solubilizing mutations]; C-thrombin-avi-His6; thrombin cleavage site (C); His6 (C); purchased Biortus
T1 sequence (O60674 536-812 W659A/W777A/F794H): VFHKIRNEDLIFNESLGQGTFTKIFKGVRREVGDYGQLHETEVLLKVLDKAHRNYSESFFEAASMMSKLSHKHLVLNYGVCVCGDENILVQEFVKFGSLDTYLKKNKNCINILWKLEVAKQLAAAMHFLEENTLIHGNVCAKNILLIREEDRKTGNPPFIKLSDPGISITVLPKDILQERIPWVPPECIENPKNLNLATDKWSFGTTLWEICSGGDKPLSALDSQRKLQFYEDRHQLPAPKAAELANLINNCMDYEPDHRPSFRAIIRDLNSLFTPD
Protocol: Selected compounds of the present disclosure were tested in a Surface Plasmon Resonance (SPR) Assay to measure their binding kinetics and affinity for proteins of interest.
Prepare buffer: 50 mM HEPES pH 7.5, 150 mM NaCl, 0.05% (v/v) Tween, and 10% (v/v) glycerol were combined and pH was adjusted to 7.5, then filtered. 5 mM DTT, was added, and buffer without DMSO was reserved for compound resuspension. 2% (v/v) DMSO was added for assay buffer, and separately 1% DMSO was used to make buffer for resuspending compounds.
Prepare compounds: Using a Bravo liquid handler, 99 μL of 1% (v/v) DMSO assay buffer was added to 1 μL compounds in DMSO.
Run 8K Method: Biotin CAPture (CAP) chip surface was regenerated prior to run by: Inserting CAP chip into Biacore 8K, prime machine with assay buffer with 2% (v/v) DMSO; Setting instrument temperature to 20° C.; Conditioning surface with NaOH/GdnHCl reagents from CAP chip kit (60 seconds, 10 μL/min); and Capturing oligo-Streptavidin (SA) reagent from CAP kit (600 seconds, 1 μL/min), expected capture ˜2500 RU. JAK2 JH1 or JH2 protein was immobilized by preparing a sample of 0.5 uM JH1 or 0.4 uM JH2 protein diluted in assay buffer without DMSO and supplemented with 10 uM of a selected compound of the invention as a stabilizer (370 seconds, 5 uL/min), expected capture ˜1000 RU. Remaining biotin sites on SA were blocked with 1 uM biotin (30 seconds, 20 uL/min), then equilibrated for 1800 seconds at 100 uL/min. Compounds being assayed were run in single cycle kinetics: 4 doses with a top concentration of 5 uM (JH1) or 500 nM (JH2), dilution factor of 3, at 20° C., for a contact time of 60 seconds, and a dissociation time of 300 seconds (JH1) or 1200 seconds (JH2), at a flow rate of 30 uL/min. The surface was completely regenerated after each compound is run, and JH1 or JH2 protein was immobilized fresh prior to each new compound. Data were fitted kinetically with 1:1 binding model using Biacore Insight Evaluation Software.

[4] = Homo sapiens, TF-1, TF1 cells, JAK2 V617F

Row | SMILES | IC50 [1, 4] [nM] | IC50 [2, 4] [nM] | Kd [3] [nM] | IC50 ([1]; TF1 JAK2 V617F) [nM] | IC50 ([2]; TF1 JAK2 V617F) [nM] | Kd ([3]; SPR, JAK2 JH2 domain) [nM]
1 | CNC(=O)c1nnc(NC(=O)C2CC2)cc1Nc1cccc(-c2ccc(C(=O)N(C)[C@@H](C)c3cnn(C)c3)nc2)c1OC (single isomer, unassigned) [Compound 116] |  |  |  | 50 to 500 | 500 to 5000 | 0.01 to 10
2 | CNC(=O)c1nnc(NC(=O)C2CC2)cc1Nc1cccc(-c2ccc(C(=O)N(C)Cc3ncc(COC)s3)nc2)c1OC [Compound 244] | 50 to 500 | 50 to 500 | 0.01 to 10 |  |  | 
3 | CNC(=O)c1nnc(NC(=O)C2CC2)cc1Nc1cccc(-c2ccc(C(=O)N3CCc4cccnc4CC3)nc2)c1OC [Compound 196] | 500 to 5000 | 500 to 5000 | 0.01 to 10 |  |  | 
4 | CNC(=O)c1nnc(NC(=O)C2CC2)cc1Nc1cccc(-c2ccc(C(=O)N(C)Cc3ccc(F)cc3)nc2)c1OC [Compound 113] |  |  |  | 500 to 5000 | 500 to 5000 | 10 to 50
5 | CNC(=O)c1nnc(NC(=O)C2CC2)cc1Nc1cccc(-c2ccc(C(=O)N(C)CC(F)F)nc2)c1OC [Compound 114] |  |  |  | 5000 to 100000 | 5000 to 100000 | 10 to 50
6 | CNC(=O)c1nnc(NC(=O)C2CC2)cc1Nc1cccc(-c2ccc(C(=O)N(C)C[C@H]3Cc4ccccc4CO3)nc2)c1OC (single isomer, unassigned) [Compound 139] |  |  |  | 500 to 5000 | 5000 to 100000 | 10 to 50
7 | CNC(=O)c1nnc(NC(=O)C2CC2)cc1Nc1cccc(-c2cnc(C(=O)N(C)Cc3ccccn3)c(F)c2)c1OC [Compound 27] |  |  |  | 50 to 500 | 50 to 500 | 0.01 to 10
8 | CNC(=O)c1nnc(NC(=O)C2CC2)cc1Nc1cccc(-c2ccc(C(=O)N(C)Cc3ccn(C)n3)c(C(F)(F)F)c2)c1OC [Compound 171] |  |  |  | 500 to 5000 | 500 to 5000 | 0.01 to 10
9 | CNC(=O)c1nnc(NC(=O)C2CC2)cc1Nc1cccc(-c2cnn(C3CN(CC4(C#N)CC4)C3)c2)c1OC [Compound 121] |  |  |  | 500 to 5000 | 5000 to 100000 | 0.01 to 10
10 | CNC(=O)c1nnc(NC(=O)C2CC2)cc1Nc1cccc(-c2ccc(C(=O)N(C)Cc3cn(C)nc3C3CC3)nc2)c1OC [Compound 252] | 50 to 500 | 50 to 500 | 0.01 to 10 |  |  | 
11 | CNC(=O)c1nnc(NC(=O)C2CC2)cc1Nc1cccc(-c2cn(C3CN(Cc4cccc(Cl)n4)[C@@H]3C)nn2)c1OC (stereo in doubt) [Compound 239] | 500 to 5000 | 500 to 5000 | 0.01 to 10 |  |  | 
12 | CNC(=O)c1nnc(NC(=O)C2CC2)cc1Nc1cccc(-c2ccc(C(=O)N(C)[C@H](C)c3cnn(C)c3)nc2)c1OC (single isomer, unassigned) [Compound 115] |  |  |  | 5000 to 100000 | 5000 to 100000 | 10 to 50
13 | CNC(=O)c1cnc(NC(=O)C2CC2)cc1Nc1cccc(-c2ccc(C(=O)N(C)Cc3cc(C#N)ccn3)nc2)c1OC [Compound 176] |  |  |  | 500 to 5000 | 50 to 500 | 0.01 to 10
14 | CNC(=O)c1nnc(NC(=O)C2CC2)cc1Nc1cccc(C(=O)N[C@H](C)C2CN(Cc3ccccn3)C2)c1OC (single isomer, unassigned) [Compound 246] | 5000 to 100000 | 5000 to 100000 | 50 to 500 |  |  | 

Now from value to compound:

Row | IC50 [1, 4] [nM] | IC50 [2, 4] [nM] | Kd [3] [nM] | IC50 ([1]; TF1 JAK2 V617F) [nM] | IC50 ([2]; TF1 JAK2 V617F) [nM] | Kd ([3]; SPR, JAK2 JH2 domain) [nM] | SMILES
15 | 500 to 5000 | 50 to 500 | 0.01 to 10 |  |  |  | CNC(=O)c1nnc(NC(=O)C2CC2)cc1Nc1cccc(-c2cnn(C3CN(Cc4cccc(C(=O)C(C)C)n4)C3)c2)c1OC [Compound 309]
16 | 500 to 5000 | 500 to 5000 | 0.01 to 10 |  |  |  | CNC(=O)c1nnc(NC(=O)C2CC2)cc1Nc1cccc(-c2cnn([C@H]3C[C@H](Cc4cccc(C#N)n4)C3)c2)c1OC [Compound 349]
17 | 5000 to 100000 | 500 to 5000 | 10 to 50 |  |  |  | CNC(=O)c1nnc(NC(=O)C2CC2)cc1Nc1cccc(-c2ccc(C(=O)N(C)Cc3nc(CN(C)C)cs3)nc2)c1OC [Compound 253]
18 | 500 to 5000 | 50 to 500 | 0.01 to 10 |  |  |  | CNC(=O)c1nnc(NC(=O)C2CC2)cc1Nc1ccc(C)c(-c2cnc(C(=O)N(C)Cc3ncc(COC)s3)c(F)c2)c1OC [Compound 314]
19 | 500 to 5000 | 500 to 5000 | 0.01 to 10 |  |  |  | CNC(=O)c1nnc(NC(=O)C2CC2)cc1Nc1cccc(-c2ccc(C(=O)N(C)Cc3ncc(COC)s3)cc2)c1OC [Compound 316]
20 | 5000 to 100000 | 5000 to 100000 | 0.01 to 10 |  |  |  | CNC(=O)c1nnc(NC(=O)C2CC2)cc1Nc1cccc(-c2cn(C3CN(Cc4cccc(C#N)n4)C3)nc2C(C)O)c1OC (stereo not drawn) [Compound 337]
21 | 500 to 5000 | 5000 to 100000 | 50 to 500 |  |  |  | CNC(=O)c1nnc(NC(=O)C2CC2)cc1Nc1cccc(-c2ccc(C3CN(Cc4cn(C)nc4C#N)C3)nc2)c1OC [Compound 293]
22 | 50 to 500 | 50 to 500 | 0.01 to 10 |  |  |  | CNC(=O)c1nnc(NC(=O)C2CC2)cc1Nc1cccc(-c2cnn(C3CN(Cc4cccc(C(C)O)n4)C3)c2)c1OC (stereo not drawn) [Compound 306]
23 | 50 to 500 | 50 to 500 | 0.01 to 10 |  |  |  | CNC(=O)c1nnc(NC(=O)C2CC2)cc1Nc1cccc(-c2cnn(C3CN(Cc4cccc(C#CC(C)(C)O)n4)C3)c2)c1OC [Compound 259]
24 | 500 to 5000 | 5000 to 100000 |  |  |  | 0.01 to 10 | CNC(=O)c1nnc(NC(=O)C2CC2)cc1Nc1cccc(-c2cnn([C@H]3C[C@H]([C@H](O)c4ccccn4)C3)c2)c1OC (single isomer, unassigned) [Compound 397]
25 | 50 to 500 | 50 to 500 | 0.01 to 10 |  |  |  | CNC(=O)c1nnc(NC(=O)C2CC2)cc1Nc1cccc(-c2cnn(C3CN(Cc4cccc(C5CC5)n4)C3)c2)c1OC [Compound 276]
26 | 500 to 5000 | 5000 to 100000 | 0.01 to 10 |  |  |  | CNC(=O)c1nnc(NC(=O)C2CC2)cc1Nc1cccc(-c2cnn(C3CN(C(C#N)c4ccccn4)C3)c2)c1OC (racemic) [Compound 315]
27 | 50 to 500 | 50 to 500 | 10 to 50 |  |  |  | CNC(=O)c1nnc(NC(=O)C2CC2)cc1Nc1cccc(-c2cnn(C3CN(Cc4cccc(C(O)C(C)C)n4)C3)c2)c1OC (stereo not drawn) [Compound 308]
